Here are results for nine compounds from patent US3985878A, “Anti-inflammatory and antirheumatic compounds and preparation” (priority 1974, dated 1976).

Series [1] is described as follows: Anti-inflammatory activity, paw test (Domenjoz test). Format: in vivo, rat. The conditions noted are these: read-out: ED50 per os, acute anti-inflammatory activity (Domenjoz test). The protocol: 1a. Anti-inflammatory activity: this activity was measured by the paw test according to Doemnjoz, characterised in its carrying out by the following method:
To young rats of medium weight of 200 g there is administered by hypodermic injection into the right paw an aqueous suspension of carragheen at 1%, 1 hour after the oral administration of the drugs under investigation.
After two hours from the administration of the carragheen, the pawas are disjointed, weighed, and comparison is made between the injected paw, meanwhile swollen, and the paw not interfered with.
This evaluation is expressed both in mg/kg of animal weight and in micromoles/Kg of weight of the animal.

Series [2] has as its system fibroblast culture. Kind of series: Production of mucopolysaccharides from fibroblast culture in vitro. Format: cell-based. The conditions noted are these: Fibroblast, 240 h, read-out: Mucopolysaccharide products at the tenth day of incubation; for activity at 10 µg/mL: 10 μg/ml of culture liquid. The protocol: a. Tests in vitro: These tests consist of the cultivation in vitro, i.e., outside the organism, of tissue of the same embriological origin in relation to the osteoarticular. Upon the growth of this tissue there is then measured the activities of the various drugs. The units of measurement of these activities is the production of glucosaminoglicanes (mucopolysaccharides measured by the turbidimetric method).
The compounds which form the subject of this invention were evaluated according to this test and compared with known anti-inflammatories.

Series [3] can be described thus: Analgesic activity, phenylquinone test. Format: in vivo, rat. The conditions noted are these: read-out: ED50 per os, analgesic activity (phenylquinone test). The source says: 2. Analgesic activity: The analgesic activity of an anti-inflammatory can be examined traditionally by the phenylquinone method based on the fact that intra-peritoneal administration to a rat of an irritant substance such as phenylquinone induces vocal reactions ("squirring") in the animal.
From the number of these reactions one judges the pain sensitivity.

Series [4] in a line: Irritant and ulceroid (gastrolesive) activity on the gastric mucosa. The conditions noted are these: in vivo, rat. On the procedure: 4. Irritant and ulceroid activity on the gastric mucosa
The experimental evaluation of this activity was made on rats, by the method here reported:
The compound is administered orally to rats which have fasted for 12 hours, the animals being killed 4 hours after the administration.
Regarded as positive, i.e. with stomach damage, are those animals which have at least one haemorrhage point on the stomach wall.
By ED50 there is meant that dose of the drug which can […] in 50% of the animals treated, the formation of these haemorrhages.
In Table 6 there are compared CR 604 and Indometacin, since the latter is, amongst them all, the nearest to the anti-inflammatory activity values of CR 604.

Series [5] is described as follows: Solubility. It is filed as physicochemical.
Series [6] deals with uropepsinogene. Format: in vivo, human. On the procedure: (§1) Thus for example comparing CR 604 administered in capsules of 75 mg (6 per day), with Indometacin in capsules of 25 mg (6 per day), i.e. in approximately equimolecular doses on a group of 60 subjects treated (30 with CR 604 and 30 with Indometacin, one notes that (see Table 7):
Gastric secretion of pepsin is increased by agents which irritate and damage the gastric mucosa.

The format of series [7] is in vivo, human. The conditions noted are these: for gastric disturbances (subjects treated): Indometacin capsules of 25 mg. On the procedure: Thus for example comparing CR 604 administered in capsules of 75 mg (6 per day), with Indometacin in capsules of 25 mg (6 per day), i.e. in approximately equimolecular doses on a group of 60 subjects treated (30 with CR 604 and 30 with Indometacin, one notes that (see Table 7): […]

A short description of series [8]: Osteolathyrism in the rabbit (aminoacetonitrile). Format: in vivo. On the procedure: B. Tests in vivo: Osteolathyrism in the rabbit.
Osteolathrism consists of inducing into young rabbits a dystrophy of the bone joint system, administering every day aminoacetonitrile by i.p. means, in the quantity of 100 mg/kg of body weight. With this treatment, in about 30 days, the following changes are shown in the rabbit:
Loss of weight (related to the checks physiologically treated), ptosis of the auricular pavilion, loss of fur, deformation of the front and rear limbs, deterioration of the general condition.
All this takes place because the aminoacetonitrile is a collagen tissue poison which changes the biochemical composition of the joint cartilages and the bones.
An evaluation of the therapeutic activity can be made either by biochemical evaluation, i.e. by measuring the quantity of aminosugars in these tissues, or by considering only the general symptoms, which are proportional to the diminution of the aminosugars.
In Table 5 this latter evaluation is reported, in which every symptom was evaluated by allotting it a number from 0 to 4, 4 indicating the maximum amount of damage and 0 indicating no damage.
On Table 5 there are given the results of treatment evaluated on the 25th day, comparing the groups treated only with a physiological solution, only with aminoacetonitrile, with aminoacetonitrile and CR 604, with aminoacetonitrile and Indometacin in the prescribed doses.
Each group consisted of 8 animals.

The subject of series [9] is urinary calcium. It is filed as in vivo, human. The protocol:
as §1
c. […] Excretion of calcium is related to the destruction of the fibrils of the proteic bone matrix which thus also loses the calcium deposited upon it.
The administration of known anti-inflammatories brings about the lysis of these fibrils with loss of calcium.

Series [10] in a line: Pellets-induced granuloma test (cotton pellets). The conditions noted are these: Rattus norvegicus, po, read-out: ED50 per os, acute anti-inflammatory activity (granuloma test). It is filed as in vivo, rat. The protocol:
1b. Pellets-induced granuloma test:
Another important test for the evaluation of an anti-inflammatory is that of cotton pellets. This consists of planting a sterile cotton pellet under the rat's back skin.
This pellet is left in situ for a week while the animals are treated daily with various doses of the drug being examined. Evaluation is effected by weighing the pellets taken at the given time and dried, comparing the weight of those of the treated animals with the checks.

Setting [11] is: rat, oral 1 hour before carragheen 1%, paws weighed after two hours.
[12] abbreviates: oral, fasted 12 hours, killed 4 hours after administration, read-out: ED50 gastrolesive.
[13] abbreviates: after one week, CR 604 75 mg or Indometacin 25 mg capsules, 6 per day.
The mark [14] stands for this setting: after three weeks, CR 604 75 mg or Indometacin 25 mg capsules, 6 per day.
The mark [15] stands for this setting: score 0 (no damage) to 4 (maximum damage), 5 mg/kg/day i.p. + aminoacetonitrile 100 mg/kg/day, 25 days.

Where “and” joins values, the source holds several entries; their conditions need not be identical. Equal entries are not always repeated. Structures can show the parent of a compound that is named as a salt. Where two headings read alike, the source gives them in different places.

Take `CC(=O)Oc1ccccc1C(=O)O` [Acetylsalicylic ac.]: the ED50 in [1] (Rattus norvegicus, po) was 1250 µmol/kg and 226 mg/kg.
For `CC(C)Cc1ccc(C(C)C(=O)O)cc1` (centres unmarked) [Ibuprofen], in series [1] (setting [11]), the 50% effective dose (ED50) is 436 µmol/kg and 90 mg/kg.
Regarding `CCCCC1C(=O)N(c2ccccc2)N(c2ccccc2)C1=O` [Phenylbutazone], the activity at 10 µg/mL in [2] is 58%. The median effective dose (ED50) in series [1] (setting [11]) was 464 µmol/kg and 143 mg/kg; in [3] (rat, oral) it was 324 µmol/kg and 100 mg/kg.
As to `CCCN(CCC)C(=O)C(CCC(=O)OCCCN1CCN(CCCOC(=O)Cc2c(C)n(C(=O)c3ccc(Cl)cc3)c3ccc(OC)cc23)CC1)NC(=O)c1ccccc1` (racemic) [CR 613 (di-maleate), N'-3-[1(p-chlorobenzoyl)-5-methoxy-2-methyl-3-indoleacetoxy]-propyl-N-3-(N-benzoyl-N',N'-di-n-propyl-DL-isoglutaminoyl)-oxypropyl-piperazine], in [1] (setting [11]), the ED50 was 13.6 µmol/kg and 14.9 mg/kg. For the same compound, the TD50 at 4 h in series [4] (setting [12]) is 277 µmol/kg. The compound further gave a TD50 at 4 h in series [4] (po) of 303 mg/kg. In [5], the solubility in acetone entry is recorded as “slightly soluble”, the solubility in ethanol entry is reported as “slightly soluble” and the solubility in methanol result is “more soluble”. In series [5] (water), the “solubility in water, in words” value is listed as “Insoluble”.
Regarding `COc1ccc2c(c1)c(CC(=O)O)c(C)n2C(=O)c1ccc(Cl)cc1` [Indometacin], the activity at 2 µg/mL in series [2] was found to be 78%. Further, the ED50 in [1] (Rattus norvegicus, po) is 17.3 µmol/kg and 6.2 mg/kg; in [10], 23.5 µmol/kg and 8.41 mg/kg; in series [3] (Rattus norvegicus, po) it was 5.6 µmol/kg and 2 mg/kg. Moreover, in [4] (setting [12]), the TD50 at 4 h is 33.5 µmol/kg and 12 mg/kg. For the same compound, in series [4] (po), the “gastrolesive dose, in words” value is “very low”. The Uropepsinogene is listed as 208.1 equivalent mg of tyrosine per in series [6] (setting [13]), 345.7 equivalent mg of tyrosine per in [6] (setting [14]) and 164.7 equivalent mg of tyrosine per in series [6] (before treatment). Further, in [6] (human), the “uropepsinogene in urine, in words” value is “increases”. Besides, the “gastric disturbances (subjects treated)” value stood at 46.6% in series [7] (after 1 week of treatment, 6 per day) and 53.3% in series [7] (after 3 weeks of treatment, 6 per day). Further, the Epigastric pain is 53.3 % of patients in pain in series [7] (after 3 weeks, CR 604 75 mg or Indometacin 25 mg capsules, 6 per day); 46.6 % of patients in pain in series [7] (setting [13]); 0 % of patients in pain in series [7] (before treatment). The “effect on aminoacetonitrile symptoms, in words” value in [8] (rabbit) is recorded as “cannot prevent the occurrence of these conditions”. The “Deformed gait of back legs” value in series [8] (setting [15]) came out at 1.6. Further, the “Deformed gait of front legs” value in [8] (setting [15]) amounted to 3.2. For the same compound, the “General Condition of Animal” value in [8] (setting [15]) turned out to be 3.8. In addition, the Loss of fur in series [8] (setting [15]) was found to be 3. Besides, the Loss of weight in series [8] (setting [15]) came to 3.5. Further, in [8] (setting [15]), the “Ptosis of auricular pavilion” value is recorded as 1.4. The Urinary calcium in [9] (setting [13]) is 137 mg/1000 cc of urine; in series [9] (setting [14]) it was 148 mg/1000 cc of urine; in [9] (before treatment), 126 mg/1000 cc of urine. Further, the “excretion of urinary calcium, in words” value in series [9] (human) is “tendency to an increase”.
Take `CCCN(CCC)C(=O)C(CCC(=O)OCCCN1CCN(CCOC(=O)Cc2c(C)n(C(=O)c3ccc(Cl)cc3)c3ccc(OC)cc23)CC1)NC(=O)c1ccccc1` (racemic) [CR 604 di-hydrochloride, N'-2-[1-(p-chlorobenzoyl)-5-methoxy-2-methyl-3-indoleacetoxy]ethyl-N-3-(N-benzoyl-N', N'-di-n-propyl-DL-isoglutaminoyl)-oxypropyl-piperazine]: in series [5], the solubility in acetone result is on record as “Fairly soluble”, the solubility in ethanol entry is listed as “Soluble” and the solubility in methanol entry is listed as “Soluble”. Further, the “solubility in water, in words” value in series [5] (water) is reported as “Hardly soluble”. In addition, the solubility in series [5] (water, 25°) is around 5000 µg/mL.
On to `CCCN(CCC)C(=O)C(CCC(=O)OCCCN1CCN(CCOC(=O)Cc2c(C)n(C(=O)c3ccc(Cl)cc3)c3ccc(OC)cc23)CC1)NC(=O)c1ccccc1` (racemic) [CR 604 dioxalate, N'-2-[1-(p-chlorobenzoyl)-5-methoxy-2-methyl-3-indoleacetoxy]ethyl-N-3-(N-benzoyl-N', N'-di-n-propyl-DL-isoglutaminoyl)-oxypropyl-piperazine], for which, in [5], the solubility in acetone entry is given as “slightly soluble”, the solubility in ethanol entry was “slightly soluble” and the solubility in methanol entry is listed as “slightly soluble”. In addition, the “solubility in water, in words” value in [5] (water) is given as “Insoluble”.
Regarding `Cc1cccc(Nc2ccccc2C(=O)O)c1C` [Mephenamic ac.], the activity at 10 µg/mL in [2] came to 58%. Further, the ED50 in series [1] (setting [11]) is 439 µmol/kg and 106 mg/kg.
`CCCN(CCC)C(=O)C(CCC(=O)OCCN1CCN(CCOC(=O)Cc2c(C)n(C(=O)c3ccc(Cl)cc3)c3ccc(OC)cc23)CC1)NC(=O)c1ccccc1` (racemic) [CR 626 (di-maleate), N'-2-[1-(p-chlorobenzoyl)-5-methoxy-2-methyl-3-indoleacetoxy]-ethyl-N-2-(N-benzoyl-N',N'-di-n-propyl-D,L-isoglutaminoyl)-oxyethyl-piperazine]: the median effective dose (ED50) in series [1] (setting [11]) was 15 µmol/kg and 16 mg/kg. The TD50 at 4 h in series [4] (setting [12]) is 342 µmol/kg. The compound also returned a TD50 at 4 h in series [4] (po) of 363 mg/kg. Moreover, in series [5], the solubility in acetone result is “slightly soluble”, the solubility in ethanol entry is given as “slightly soluble” and the solubility in methanol entry is reported as “more soluble”. Further, the “solubility in water, in words” value in [5] (water) is given as “Insoluble”.
